Literature values as cited in article PMC3352981 (Bioorganic & medicinal chemistry letters, 2012).

Columns and labels:
[1] = tested on: BoNT/A
[2] = tested on: BoNT/A; settings: mouse

| Structure (SMILES) | potency (in words) [1] | in vivo activity [2] |
| --- | --- | --- |
| CC(C)(C)c1ccc(C=CC(=O)NO)cc1 [4-tert-butylcinnamyl hydroxamate] | dramatic loss of potency | – |
| O=C(/C=C/c1ccc(Cl)cc1Cl)NO [Compound 1, 2,4-dichlorocinnamyl hydroxamic acid] | – | marginal in vivo activity |
